{"source": "patent US12441767B2", "about": "(priority 2020, dated 2025)", "key": {"[1]": {"settings": "as reported in the literature; cited from earlier work"}, "p-Erk1/2": {"test_system": "p-Erk1/2", "assay_type": "cell-based, human"}, "human ES cells [2]": {"test_system": "human ES cells", "test": "Cell-penetrating ability of FITC-labeled peptides, confocal microscopy", "assay_type": "cell-based", "settings": "24 h", "description": "The human ES cells were treated with FITC-labeled P13 and M6 for 24 h, respectively, and the positions of the peptides were confirmed under a confocal microscope by immunostaining with nuclear dye combined with cytoplasmic membrane dye.\nImmunostaining of human ES cells treated with the fluorescently labeled P13/M6: Human ES cells were cultured on a sterile cover slide, and a 12-well plate was coated with matrix gel at a concentration of 1 mg/ml for 1-2 h. After 24 h, the cells were washed with a DMEM-F12 culture medium, the E8 culture medium was used for replacement, and the cells were treated with the fluorescently labeled peptide for 24 h. Then, the cell membranes were stained by using the CellMask™ crimson plasma membrane (Thermo Fisher), and incubation was performed at 37° C. for 10 min. The staining solution was removed, 200 μL of 4.0% formaldehyde was added to the culture medium, and incubation was performed at 37° C. for 10 min. The culture medium was then removed. The cells were washed with 1×PBS three times and incubated with 10 μl of DAPI (a DNA staining agent) and a mounting medium for one minute, and the cover slide was mounted and sealed with nail polish to prevent drying. The samples were imaged with a Carl Zeiss confocal LSM710 microscope."}, "p-Smad2": {"test_system": "p-Smad2", "assay_type": "cell-based, human"}, "human ES cells [3]": {"test_system": "human ES cells", "test": "Survival / proliferation of human ES cells (cell number by flow cytometry)", "assay_type": "cell-based", "settings": "E8 culture medium + peptide vs E8 culture medium; 24 h; P13 final concentration 200 μM; one-way ANOVA"}, "human ES cells [4]": {"test_system": "human ES cells", "test": "Morphology (colony formation) of human ES cells after five serial passages", "assay_type": "cell-based", "description": "Two groups were prepared, with four different culture media (E6, E6+TGFβ1, E6+FGF2 and E8) in each group, and the peptide P13 was added to the 4 culture media in group 1. A total of eight different culture media were prepared.\nThe human ES cells were serially passaged five times under eight different conditions to detect the differences of morphologies and pluripotency markers. Please refer to FIG. 2a for the morphological difference results observed after five passages.\nOn the basis of the preliminary results, three groups were prepared, with four different culture media (E6, E6+TGFβ1, E6+FGF2 and E8) in each group, the peptide M6 was added to the four culture media in group 1, respectively, and the P13 was added in another group as the control. In this way, a total of twelve different culture media were prepared.\nThe human ES cells were serially passaged five times under 12 different conditions to detect the differences of morphologies and pluripotency markers. Please refer to FIG. 3a for the morphological difference results obtained after five passages (in the figure, the samples from left to right were E6, E6+P13, E6+TGFβ1, E6+TGFβ1+P13, E6+FGF2, E6+FGF2+P13, E8 and E8+P13)."}, "OCT4, SOX2 and NANOG": {"test_system": "OCT4, SOX2 and NANOG", "test": "qPCR of self-renewal markers in human ES cells after five passages", "assay_type": "cell-based", "settings": "for expression levels of SOX2 and NANOG: one-way ANOVA ***p<0.001", "from_the_text": "The self-renewal markers of the human ES cells were detected by using a quantitative polymerase chain reaction (qPCR) method.\nThe differential expressions of mRNAs of OCT4, SOX2 and NANOG were detected under the culture conditions of the above eight different culture media. Please refer to FIG. 2b for the detection results.\nThe self-renewal markers of the human ES cells were detected by using qPCR assay.\nThe differential expressions of mRNAs of OCT4, SOX2 and NANOG were detected under 12 different conditions. Please refer to FIG. 3b for the detection results (in the figure, the samples from left to right were E6, E6+P13, E6+M6, E6+TGFβ1, E6+TGFβ1+P13, E6+TGFβ1+M6, E6+FGF2, E6+FGF2+P13, E6+FGF2+M6, E8, E8+P13 and E8+M6)."}, "[5]": {"settings": "E6 culture medium + peptide vs E6 control culture medium"}}, "note": "Entries after “also recorded” stand apart in the source; their conditions may differ. Where two headings read alike, the source gives them in different places. Ends that are not written are not given here.", "data": [{"compound": "N=C(N)NCCC[C@H](N)C(=O)O", "note": "[arginine]", "values": [{"measurement": "heparin-binding affinity relative to lysine", "setting": "[1]", "value": 2.5, "unit": "times"}]}, {"compound": "FGF2: growth factor component of the E8 culture medium, 16.4 kDa", "values": [{"measurement": "p-Erk1/2 expression", "setting": "p-Erk1/2; growth factor in E6 culture medium (FIG. 5d lanes 1-2)", "value": "up-regulated"}]}, {"compound": "Gonearrestide (WCYKLPDRVSIKEKGRCN-NH2; cysteine pairing not given here) [P13]", "values": [{"measurement": "position of FITC-labeled peptide in human ES cells", "setting": "human ES cells [2]; E8, confocal microscope", "value": "bound to the plasma membranes"}, {"measurement": "cell-penetrating peptide (CPP) property", "setting": "human ES cells [2]; none found in cytoplasm", "value": "did not belong to the CPP family"}, {"measurement": "expression level of p-Smad2", "setting": "p-Smad2; [5]", "value": "significantly up-regulated"}, {"measurement": "expression level of p-Smad2", "setting": "p-Smad2; E6 with P13 and/or TGFβ1 vs E6+FGF2", "value": "up-regulated"}, {"measurement": "expression level of p-Smad2", "setting": "p-Smad2; E8 with P13 vs E8", "value": "up-regulated"}, {"measurement": "number of human ES cells that survived", "setting": "human ES cells [3]", "value": "significantly higher"}, {"measurement": "colony-forming morphology of human ES cells", "setting": "human ES cells [4]; E6+TGFβ + peptide, after five passages, vs E6+TGFβ", "value": "still maintained their colony morphologies; also recorded: maintained their colony-forming morphologies; also recorded: mixed state of colonies and dispersed cells"}, {"measurement": "morphology of human ES cells", "setting": "human ES cells [4]; peptide added to E6+FGF2, five generations", "value": "no significant morphological differences; also recorded: no significant difference in their morphologies"}, {"measurement": "morphology of human ES cells", "setting": "human ES cells [4]; peptide added to E8, five generations", "value": "no significant morphological differences; also recorded: no significant difference in their morphologies"}, {"measurement": "expression level of p-Erk1/2", "setting": "p-Erk1/2; [5]", "value": "significantly up-regulated"}, {"measurement": "expression level of p-Erk1/2", "setting": "p-Erk1/2; E6 with P13 and/or FGF2 vs E6+TGFβ1", "value": "up-regulated"}, {"measurement": "expression level of p-Erk1/2", "setting": "p-Erk1/2; E8 with P13 vs E8", "value": "not significantly up-regulated"}, {"measurement": "mRNA expression levels of OCT4, SOX2 and NANOG", "setting": "OCT4, SOX2 and NANOG; E6 + peptide in comparison with other conditions, five passages", "value": "low mRNA expression levels"}, {"measurement": "expression levels of SOX2 and NANOG", "setting": "OCT4, SOX2 and NANOG; E6+FGF2 + peptide vs E6", "value": "significantly up-regulated"}, {"measurement": "mRNA expression of OCT4, SOX2 and NANOG", "setting": "OCT4, SOX2 and NANOG; E6+TGFβ1 + peptide vs E6+TGFβ1", "value": "up-regulated"}, {"measurement": "expression levels of SOX2 and NANOG", "setting": "OCT4, SOX2 and NANOG; E8 + peptide vs E6", "value": "significantly up-regulated"}]}, {"compound": "TGFβ1: growth factor component of the E8 culture medium, 25.6 kDa homodimer linked by a disulfide bond", "values": [{"measurement": "p-Smad2 expression", "setting": "p-Smad2; E6 with 1.0 μmol LDN189193 treated with TGFβ or M6 vs E6 with 1.0 μmol LDN189193", "value": "up-regulated"}, {"measurement": "p-Smad2 expression", "setting": "p-Smad2; growth factor in E6 culture medium (FIG. 5d lanes 3-4)", "value": "up-regulated"}, {"measurement": "p-Erk1/2 expression", "setting": "p-Erk1/2; E6 with M6 or TGFβ in presence of SB431542 (10 μmol) / A8301 (1.0 μmol)", "value": "not observed"}]}]}
